The text below walks through data of PubChem BioAssay AID1645862 (Buhrlage Lab, Dana-Farber Cancer Institute and Novartis …, 2021).

The target in the assay is Ubiquitin carboxyl-terminal hydrolase 8 (Homo sapiens) (UniProt P40818). Description: Ubiquitin-specific protease 8 inhibitors, concentration-effect, biochemical, validation of initial actives (AID 1645862).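 Further: potency reflects inhibition of USP8 cleavage of a ubiquitin rhodamine substrate.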 The note with it: recombinant USP8 deubiquitinase activity assay.
Chain of Ubiquitin carboxyl-terminal hydrolase 8 (Homo sapiens) (P40818 whole entry, looked up): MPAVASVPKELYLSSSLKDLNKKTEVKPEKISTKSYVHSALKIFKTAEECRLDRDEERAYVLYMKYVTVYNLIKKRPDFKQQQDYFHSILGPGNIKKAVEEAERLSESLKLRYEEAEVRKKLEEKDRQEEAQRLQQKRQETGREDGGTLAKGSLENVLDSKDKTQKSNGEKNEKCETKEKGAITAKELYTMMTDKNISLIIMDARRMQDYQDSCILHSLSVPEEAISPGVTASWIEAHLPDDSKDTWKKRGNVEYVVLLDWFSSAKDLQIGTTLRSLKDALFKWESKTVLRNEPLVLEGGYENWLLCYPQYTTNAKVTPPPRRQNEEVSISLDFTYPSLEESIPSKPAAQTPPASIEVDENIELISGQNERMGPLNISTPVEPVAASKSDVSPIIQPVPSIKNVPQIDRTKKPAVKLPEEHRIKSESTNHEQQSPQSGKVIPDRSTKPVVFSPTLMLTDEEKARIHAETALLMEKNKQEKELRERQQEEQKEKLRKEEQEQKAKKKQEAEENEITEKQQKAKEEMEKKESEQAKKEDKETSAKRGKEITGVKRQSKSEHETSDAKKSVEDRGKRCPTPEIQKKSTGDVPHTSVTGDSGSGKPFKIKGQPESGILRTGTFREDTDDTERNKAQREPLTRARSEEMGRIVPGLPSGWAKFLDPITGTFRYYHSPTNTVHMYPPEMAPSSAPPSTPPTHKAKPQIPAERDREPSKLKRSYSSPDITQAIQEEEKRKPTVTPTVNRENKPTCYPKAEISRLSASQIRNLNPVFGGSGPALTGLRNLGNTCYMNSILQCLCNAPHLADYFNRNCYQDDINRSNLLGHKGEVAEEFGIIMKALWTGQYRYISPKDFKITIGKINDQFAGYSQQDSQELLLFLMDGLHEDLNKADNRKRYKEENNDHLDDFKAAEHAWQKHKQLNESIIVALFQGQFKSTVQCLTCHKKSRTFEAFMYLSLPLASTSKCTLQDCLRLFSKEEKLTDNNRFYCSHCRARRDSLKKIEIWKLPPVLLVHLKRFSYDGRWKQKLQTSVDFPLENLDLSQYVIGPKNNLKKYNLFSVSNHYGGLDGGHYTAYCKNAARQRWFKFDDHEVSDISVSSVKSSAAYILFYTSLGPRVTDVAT

Calls of active or inactive are those of the source. How the calls were made is not given here. Bounds are passed on as bounds.

One may read the IC50 as the concentration that gives 50% inhibition.

As for `O=C(CCn1c(=O)c2sccc2n(CC(=O)OCc2ccccc2)c1=O)NCc1ccc2c(c1)OCO2`, the IC50 was > 40 µM (inactive).

For the compound `Cc1nc2cc(-c3noc(-c4cccc5[nH]ccc45)n3)ccc2o1`, the IC50 was > 40 µM (inactive).

Regarding `COc1ccc(Cl)cc1NC(=O)Cn1c(=O)n(CCCC(=O)NCc2ccc(C)cc2)c(=O)c2sccc21`, the IC50 was > 40 µM (inactive).

In the case of `O=C(CC1C(=O)Nc2nc(-c3ccccc3)nn21)Nc1cccc2ccccc12` (stereo not drawn), the IC50 is > 40 µM (inactive).

Regarding `CC(NC(=O)c1ccccc1)c1nc2ccccc2n1CC(=O)Nc1ccc2c(c1)OCO2` (stereo not drawn), the IC50 is > 40 µM (inactive).

`O=C(Cn1c(CNC(=O)c2ccccc2)nc2ccccc21)Nc1ccc(F)cc1`: the IC50 was > 40 µM (inactive).

With `CCc1noc(-c2ccn3c(CC(=O)Nc4ccccc4C)nnc3c2)n1`, the IC50 is 16.5 µM.

Turning to `O=C(Cn1ccc2ccn(Cc3ccccc3)c2c1=O)Nc1ccccc1Cl`, the IC50 is > 40 µM (inactive).

On to `N#C/C(=C\c1ccc(OCc2cccc(C(=O)O)c2)cc1)c1ccc(F)cc1`, for which the IC50 was > 40 µM (inactive).

With `CCCCCCCCCCCC1=C(O)C(=O)C=C(O)C1=O`, the IC50 was 4.69 µM.

In the case of `C[C@H](Cc1cc2c(cc1O)OCO2)[C@@H](C)Cc1cc2c(cc1O)OCO2`, the half-maximal inhibitory concentration (IC50) is 33.2 µM.

On to `CC(C)c1nnc(NC(=O)C2CC(=O)N(CCc3ccc(F)cc3)C2)s1` (stereo not drawn), for which the IC50 is > 40 µM (inactive).

As to `COc1ccc(NC(=O)Cn2c(=O)n(CCCC(=O)NC3CCCC3)c(=O)c3cc(Cl)ccc32)c(OC)c1`, the IC50 is > 40 µM (inactive).

`O=C(CCn1c(=O)c2sccc2n(Cc2ccc([N+](=O)[O-])cc2)c1=O)NCc1ccccc1`: the IC50 is > 40 µM (inactive).

On to `COc1cc(NS(=O)(=O)c2ccc(NC(=O)COc3ccc(C)cc3Br)cc2)nc(OC)n1`, for which the IC50 is > 40 µM (inactive).

On to `COc1ccc(NS(=O)(=O)c2cc(NC(=O)/C=C/c3ccco3)ccc2N2CCCC2)cc1`, for which the IC50 was > 40 µM (inactive).

Turning to `Cc1cc(NC(=O)CN2CCCN(S(=O)(=O)c3ccc(F)cc3)CC2)ccc1Br`, the IC50 was > 40 µM (inactive).

With `CC(=O)c1ccc(N2CCN(S(=O)(=O)c3cc4c(cc3C)NC(=O)CO4)CC2)cc1`, the IC50 is > 40 µM (inactive).

For the compound `CSCCC(NC(=O)c1ccccc1)c1nc2ccccc2n1CC(=O)Nc1ccccc1` (stereo not drawn), the IC50 is > 40 µM (inactive).

As for `O=C(Cn1c(=O)n(-c2ccccc2)c(=O)c2ccc(C(=O)NCc3ccc4c(c3)OCO4)cc21)NCCC1=CCCCC1`, the IC50 is > 40 µM (inactive).

As for `O=C(COc1ccc(Cl)cc1Cl)Nc1ccc2[nH]c(=O)[nH]c2c1`, the IC50 was > 40 µM (inactive).

In the case of `O=C(c1cc(Cl)c(Cl)[nH]1)c1cc(Cl)cc(Cl)c1O`, the IC50 was > 40 µM (inactive).

With `O=S(=O)(c1ccccc1Cl)N1CCN(c2ccc3nnc(-c4ccco4)n3n2)CC1`, the IC50 is > 40 µM (inactive).

Take `CC1=C(C)C(c2c(-c3ccc(C)cc3)[nH]c3ccccc23)N(C(C)(C)C)C1=O` (stereo not drawn): the IC50 was > 40 µM (inactive).

With `Cc1ccc(NC(=O)c2cc(-c3ccncc3)n[nH]2)cc1Cl`, the IC50 is > 40 µM (inactive).

As for `CSc1ccc(CNC(=O)Cn2nc(C)c3c(C)n(-c4ccccc4)nc3c2=O)cc1`, the IC50 is 19.5 µM.

As for `Cc1cccc(NC(=O)CNC(=O)c2ccc(-c3noc(C4CCCC4)n3)cc2)c1C`, the IC50 is > 40 µM (inactive).

Take `Cc1nc(N2CCN(c3ccc(Cl)cc3)CC2)c2oc3ccccc3c2n1`: the IC50 is > 40 µM (inactive).

Take `CN(C)S(=O)(=O)c1ccc(NC(=O)CN2CCCc3ccccc32)cc1`: the IC50 is > 40 µM (inactive).

On to `CCCCCCCC1OC(=O)Cc2cc(O)c(O)c(O)c21` (stereo not drawn), for which the IC50 was 8.62 µM.

For `Cc1cccc(N2C(=O)/C(=C\c3cc(C#N)n(C)c3C)c3ccccc3C2=O)c1`, the IC50 is > 40 µM (inactive).

Turning to `O=C(CSc1ccc2nnc(-c3ccc(Cl)cc3)n2n1)N1CCCCC1`, the IC50 was > 40 µM (inactive).

Take `CCN(CC)C(=O)c1sc(NC(=O)c2cc(-c3ccccc3Cl)nc3ccccc23)c(C(N)=O)c1C`: the IC50 is > 40 µM (inactive).

As to `CCOc1cc2c(cc1OCC)C(c1cc3c(cc1Br)OCO3)NCC2` (stereo not drawn), the IC50 was > 40 µM (inactive).

In the case of `Cc1sc2ccn(C)c(=O)c2c1C(=O)NC1CCCC1`, the IC50 was 2.18 µM.

For `COc1ccc(C)cc1NC(=O)CN1C(=O)C2CCCC2=Nc2ccccc21` (stereo not drawn), the IC50 is > 40 µM (inactive).

In the case of `COc1ccc(Cn2c(=O)[nH]c3cc(C(=O)NCCCN4CCN(c5cccc(Cl)c5)CC4)ccc3c2=O)cc1`, the IC50 is > 40 µM (inactive).

Take `O=c1c2ccccc2nc(/C=C/c2ccco2)n1Cc1ccccc1`: the IC50 was > 40 µM (inactive).

Take `COc1cc(NC(=O)Cn2nc(-c3ccc(F)cc3)ccc2=O)ccc1-n1cnnn1`: the IC50 is > 40 µM (inactive).

In the case of `COc1ccc(C(=O)NC(Cc2ccccc2)c2nc3ccccc3[nH]2)c(OC)c1` (stereo not drawn), the IC50 was 9.44 µM.

`Cc1ccc(CNC(=O)CCCn2c(=O)c3sccc3n(CC(=O)OCc3ccccc3)c2=O)cc1`: the IC50 was > 40 µM (inactive).

As to `CCOc1ccc2[nH]c3c(=O)n(CCc4ccc(OC)cc4)cnc3c2c1`, the IC50 was > 40 µM (inactive).

For the compound `COc1ccc(-c2nc(Cn3nnc(C(=O)Nc4ccc(C)c(C)c4)c3N)c(C)o2)cc1`, the IC50 is > 40 µM (inactive).

Turning to `CCN(Cc1ccccc1)C(=O)C1CCN(Cc2ccc(OC)c(OC)c2OC)CC1`, the IC50 was > 40 µM (inactive).

Turning to `O=C(Cn1cc(C(=O)C(F)(F)F)c2cc(Br)ccc21)N1CCc2ccccc21`, the IC50 is > 40 µM (inactive).

Take `O=C(Nc1ccc(-n2cccc2)cc1)c1cccc([N+](=O)[O-])c1`: the IC50 was > 40 µM (inactive).

As for `Cc1ccc(-c2cnc(C3CC3)o2)cc1S(=O)(=O)Nc1ccc(F)c(Cl)c1`, the IC50 was > 40 µM (inactive).

Take `Cc1cn2nnc(C(=O)Nc3ccc(OC(F)(F)F)cc3)c2c(=O)[nH]1`: the IC50 is > 40 µM (inactive).

On to `O=C1C=C(O)c2c(O)cccc2C1=O`, for which the IC50 was 19 µM.

`O=C(O)c1nccnc1C(=O)N1CCc2ccccc2C1`: the IC50 was > 40 µM (inactive).

As to `CNc1nc2c(c(=O)n1C)CN(C(=O)Nc1cccc3ccccc13)CC2`, the IC50 is > 40 µM (inactive).

As to `Cc1ccc(-c2nc(NC(=O)COc3ccc(Cl)cc3)no2)cc1`, the IC50 was 9.1 µM.

`COC(=O)Nc1cccn(Cc2c(Cl)cccc2Cl)c1=O`: the IC50 is > 40 µM (inactive).

As to `Cn1c(=O)c2ncnnc2n(C)c1=O`, the concentration for half-maximal inhibition (IC50) is 0.717 µM.

Regarding `O=C(COc1ccccc1)Nc1ccc(-c2nc3cnccc3o2)c(O)c1`, the IC50 was > 40 µM (inactive).

As to `Cc1ccc(NC(=O)Cn2cncc(-c3nc(-c4ccccc4)cs3)c2=O)cc1F`, the IC50 is > 40 µM (inactive).

In the case of `Cc1ccc(S(=O)(=O)Nc2nc(-c3ccc4c(c3)NC(=O)C(C)O4)c(C)s2)cc1` (stereo not drawn), the IC50 is > 40 µM (inactive).

As to `CCc1nnc(C(=O)Nc2ccc(C(=O)NCc3ccc(OC(C)C)cc3)cc2)s1`, the IC50 was > 40 µM (inactive).

For the compound `CCc1ccc(NC(=O)c2cc(C(F)(F)F)n(C)n2)cc1`, the IC50 is > 40 µM (inactive).

Take `O=c1c2cc(Br)ccc2[nH]c(=S)n1Cc1cccnc1`: the IC50 was > 40 µM (inactive).

As for `Cc1ccc(NC(=O)CSc2nnc(-c3n[nH]c4c3CCC4)n2N)cc1C`, the IC50 is > 40 µM (inactive).

With `CCc1ccc([C@@H]2c3c(C)nn(C)c3NC(=O)[C@H]2NC(=O)c2ccc(OC)c(OC)c2)cc1`, the IC50 was > 40 µM (inactive).

`Cc1ccc(NC(=O)Nc2ccc(C)n(CC(=O)Nc3cc(C)ccc3C)c2=O)cc1`: the IC50 is > 40 µM (inactive).

Regarding `CNC(=O)Cc1ccc(NC(=O)/C=C/c2cn(-c3ccccc3)nc2-c2ccc(F)cc2)cc1`, the IC50 is > 40 µM (inactive).

`O=C(NC1(O)C(=O)c2ccccc2C1=O)c1cccc2c1-c1ccccc1C2=O`: the IC50 was 6.52 µM.

For `CCOc1ccc(NC(=O)Cn2c(-c3ccccc3)cc(C(C)=O)c2C)cc1`, the IC50 was > 40 µM (inactive).

On to `CCCCOc1ccc(-c2cc3n(c(=N)c2C#N)CCc2cc4c(cc2-3)OCCCO4)cc1OC`, for which the IC50 is > 40 µM (inactive).

Turning to `O=C(Cn1c(-c2nc(-c3cccc(F)c3)no2)cccc1=O)NCc1ccco1`, the IC50 is > 40 µM (inactive).

`O=C(/C=C/c1ccco1)N1CCC(Cn2cccn2)CC1`: the IC50 was > 40 µM (inactive).

Regarding `Cc1[nH]nc(NC(=O)C2COc3ccccc3O2)c1-c1ccccc1` (stereo not drawn), the concentration for half-maximal inhibition (IC50) is 37.3 µM.

Regarding `Cc1ccc(C(=O)NCc2ccc(C(=O)Nc3ccc(Cl)cc3)o2)cc1`, the IC50 is > 40 µM (inactive).

In the case of `c1cncc(-c2cnc3sc(NCc4ccc5c(c4)OCO5)nn23)c1`, the IC50 was > 40 µM (inactive).

As for `O=C(Nc1nc(-c2ccccc2)ns1)c1ccc2ncsc2c1`, the IC50 is > 40 µM (inactive).

For the compound `CCc1ccc(S(=O)(=O)Nc2ccc(-c3nnc(-c4ccccc4)o3)cc2)cc1`, the IC50 was > 40 µM (inactive).

Regarding `Cc1nc2nc(C(c3ccccc3)c3ccccc3)[nH]n2c(=O)c1Cc1ccccc1`, the IC50 is > 40 µM (inactive).

In the case of `Cc1ccc(Cl)cc1NC(=O)c1cc(-c2ccccn2)n[nH]1`, the IC50 is > 40 µM (inactive).

In the case of `C[C@@H]1CO[C@@H]2C3=C(C(=O)C=CC3=O)[C@H]3OC(=O)[C@@H]4CCC5[C@@H]1CCC52C34` (stereo partly drawn), the IC50 was 25 µM.

For the compound `Cn1cc(-c2nc(C(=O)Nc3ccc(C#N)cc3)cs2)c2cccnc21`, the IC50 was > 40 µM (inactive).

Turning to `COc1cc2c(cc1OC)-c1cc(Nc3ccc(Br)cc3)nc(=O)n1CC2`, the IC50 was > 40 µM (inactive).

In the case of `COc1ccc2c(c1)CCc1c-2n[nH]c1C(=O)Nc1cc(C)on1`, the IC50 is > 40 µM (inactive).

On to `COc1ccc(Cl)cc1NC(=O)Cn1c(=O)n(CCC(=O)NC2CCCC2)c(=O)c2ccccc21`, for which the IC50 was > 40 µM (inactive).

Take `Cc1nc(-c2noc(-c3cccc(F)c3)n2)cn1CC(=O)Nc1ccccc1`: the IC50 was 39.2 µM.

For the compound `COCC(=O)N1CCC(n2c(C3CC3)nc3sc(C)c(C)c3c2=O)CC1`, the IC50 was > 40 µM (inactive).
